Laboratory results published in US4379779A, “Equilin hapten and assay method” (American Home Products Corporation, priority 1980, dated 1983).

Tests used:
[1] = test system: Equilin Antibody (anti-equilin serum); assay: Cross-reactivity of steroids with anti-equilin serum (radioimmunoassay); assay type: binding, rabbit; details: for Equilin Antibody (Percent Cross-Reactivity): Table 1, anti-equilin serum, [2,4-3H]-equilin tracer
Experimental: A standard was prepared from a stock solution of unlabeled equilin in absolute ethanol (100 ng/ml). A working standard solution containing 1 ng/ml of equilin was prepared in sodium phosphate buffer (0.1 M, pH 7, 0.9% NaCl). The labeled [2,4-^3 H]-equilin solution was prepared in the assay buffer at a concentration of 100 pg/ml. The antiserum was prepared in BSA-assay buffer (1 g BSA/1000 ml sodium phosphate buffer) at a concentration of one-fifth of the final working dilutions.
The standard curve was established by preparing duplicate 3 ml centrifuge tubes containing 0, 50, 100, 250, 500, 1000, and 2000 pg of equilin in a total volume of 0.5 ml assay buffer. The sample tubes were prepared in duplicate with hydrolyzed plasma extract (0.1 ml) and assay buffer (0.4 ml) in a total volume of 0.5 ml. To all standard and sample tubes antibody (0.25 ml) and labeled steroid (0.5 ml) were added. These were mixed and allowed to incubate at 4° C. for 18 hr. After addition of 0.2 ml gamma globulin dextrancoated charcoal (4 g charcoal, 0.4 g dextran, 0.8 g human gamma globulin, 200 ml deionized water), each tube was again mixed and placed in a cold room (4° C.) for 20 min. After centrifugation at 2,500 rev./min for 6 min, 0.5 ml of each supernatant was aliquoted into a counting vial. Then 15 ml of a scintillation medium (4 g of 2,5-diphenyloxazole (PPO), 50 mg of 1,4-di-2-(5-phenyloxazoyl)-benzene(dimethyl-POPOP), 100 ml of an aqueous solubilizer Biosolv BBS-3 (Biosolv is a trademark of Bechman Istruments, Irvine, Calif., U.S.A.) and 1000 ml toluene) was added to each vial. The samples were counted to a relative standard error of less than 2% in a Packard model 3320 liquid scintillation counter, Packard Instrument Co., Downers Grove, Ill., U.S.A., see C. Matthijssen and J. W. Goldzieher, Analyt. Biochem., 10, 401 (1965).
All rabbits immunized with the immunogen produced antisera with high titers and specificity in 6 months' time. The titer was determined from the ability of antibody to bind a constant amount (50 pg) of the labeled steroid. As a primary step, the cross-reactivity [G. E. Abraham, J. Clin. Endocrinol. Metabol., 29, 866 (1969)] of estrone with anti-equilin serum obtained from each rabbit was evaluated. […] These latter two compounds represent about 2% each of the typical composition of estrogens present in conjugated estrogens and will not interfere, as shown, in the validation of the assay.

[2] = Oxidation of equilin to equilenin during formic acid hydrolysis of the conjugate fraction (HPLC); assay type: physicochemical; details: 120 min
Experimental: Plasma (0.2 ml) and distilled water (0.7 ml) were added to a 16×125 nm tube and mixed. [6,7-^3 H]-Estrone-3-sulfate (0.1 ml, 2,000 cpm) and [2,4-^3 H]-equilin (0.1 ml, 2,000 cpm) were then added to correct for recovery through the assay procedure, and the sample again mixed well and allowed to stand at room temperature for 30 min. Diethyl ether (2 ml) was added for extraction of the free compound. The extraction was repeated three times and the combined extracts washed with distilled water (1 ml) and the solvent removed by evaporation. The aqueous phase containing the conjugates was re-extracted with 2 ml of ethyl acetate-ethanol (4:1, v/v). The extraction was repeated two more times and the combined extracts were dried in a centrifuge tube (12 ml) under a stream of nitrogen. The conjugate fraction was hydrolyzed with formic acid. A solution of ethyl acetate (1 ml) containing formic acid (20% ) and ascorbic acid (1 mg) was added to the tube containing the conjugate fraction. The tube was tightly closed, vortexed, and sonified for 10 min before being placed in a 37° C. water bath for 2 hr. The hydrolyzed sample was taken to dryness, sodium phosphate buffer (1 ml) was added. The solution was vortexed and allowed to stand at 20° C. for 10 min. The hydrolyzed free compound was extracted with diethyl ether (2 ml) three times and taken to dryness. […]

| Compound | Equilin Antibody (Percent Cross-Reactivity) [1] [%] | further results |
| --- | --- | --- |
| C[C@]12CCC(=O)C=C1CC[C@@H]1[C@@H]2CC[C@]2(C)C(=O)CC[C@@H]12 [4-Androstene-3,17-dione] | < 0.10 | – |
| C[C@]12CC[C@@H]3c4ccc(O)cc4C=C[C@H]3[C@@H]1CCC2=O [6-Dehydroestrone] | < 0.10 | – |
| C[C@]12CCC3=C(CCc4cc(O)ccc43)[C@@H]1CCC2=O [8-Dehydroestrone] | 0.94 | – |
| C[C@]12CCc3c(ccc4cc(O)ccc34)[C@@H]1CC[C@H]2O [17α-Dihydroequilenin] | < 0.10 | – |
| C[C@]12CC[C@H]3C(=CCc4cc(O)ccc43)[C@@H]1CC[C@H]2O [17α-Dihydroequilin] | < 0.10 | – |
| C[C@]12CC[C@@H]3c4ccc(O)cc4CC[C@H]3[C@@H]1CC[C@H]2O [17α-Estradiol] | < 0.10 | – |
| C[C@]12CCc3c(ccc4cc(O)ccc34)[C@@H]1CC[C@@H]2O [17β-Dihydroequilenin] | < 0.10 | – |
| C[C@]12CC[C@H]3C(=CCc4cc(O)ccc43)[C@@H]1CC[C@@H]2O [17β-Dihydroequilin] | 2.86 | cross-reaction with anti-equilin serum [1]: 2.9% |
| C[C@]12CC[C@@H]3c4ccc(O)cc4CC[C@H]3[C@@H]1CC[C@@H]2O [17β-Estradiol] | < 0.10 | – |
| C[C@]12CC[C@@H](O)C[C@@H]1CC[C@@H]1[C@@H]2CC[C@]2(C)C(=O)CC[C@@H]12 [Androsterone] | < 0.10 | – |
| C[C@]12CCC(=O)C=C1CC[C@@H]1[C@@H]2[C@@H](O)C[C@@]2(C)[C@H]1CC[C@]2(O)C(=O)CO [Cortisol] | < 0.10 | – |
| C[C@]12CC[C@H](O)CC1=CC[C@@H]1[C@@H]2CC[C@]2(C)C(=O)CC[C@@H]12 [Dehydroepiandrosterone] | < 0.10 | – |
| C[C@]12CCc3c(ccc4cc(O)ccc34)[C@@H]1CCC2=O [Equilenin] | 3.45 | cross-reaction with anti-equilin serum [1]: 3.5% |
| C[C@]12CC[C@H]3C(=CCc4cc(OS(=O)(=O)O)ccc43)[C@@H]1CCC2=O [Equilin 3-Sulfate] | 1.36 | – |
| C[C@]12CC[C@H]3C(=CCc4cc(O)ccc43)[C@@H]1CCC2=O [Equilin, 3-hydroxy-1,3,5(10),7-estratetraen-17-one] | 100.0 | equilin oxidized to equilenin during hydrolysis ([2]; formic acid hydrolysis with 0.1% (w/v) ascorbic acid added): 2-3%; equilin oxidized to equilenin during hydrolysis ([2]; hydrolysis of conjugate fraction with formic acid, no antioxidant): 13-16% |
| C[C@]12CC[C@@H]3c4ccc(O)cc4C[C@@H](O)[C@]3(O)[C@@H]1CCC2=O [Equilin-7α,8α-glycol] | < 0.10 | – |
| C[C@]12CC[C@@H]3c4ccc(OS(=O)(=O)O)cc4CC[C@H]3[C@@H]1CCC2=O [Estrone 3-sulfate] | < 0.10 | – |
| C[C@]12CC[C@@H]3c4ccc(O)cc4CC[C@H]3[C@@H]1CCC2=O [Estrone] | 0.78 | cross-reaction with anti-equilin serum [1]: negligible cross-reaction |
| CC(=O)[C@H]1CC[C@H]2[C@@H]3CCC4=CC(=O)CC[C@]4(C)[C@H]3CC[C@]12C [Progesterone] | < 0.10 | – |
| C[C@]12CC[C@H]3[C@@H](CCC4=CC(=O)CC[C@@]43C)[C@@H]1CC[C@@H]2O [Testosterone] | < 0.10 | – |
